Source: US5576296A, “Galanin antagonist” (priority 1991, dated 1996)
Square brackets hold non-standard residues; d marks the D form. Ends that are not written are not given here. Peptide text beside a SMILES is read from it.

tested on: galanin receptor; test: Displacement of 125I-galanin from membranes of Rin m 5F cells; format: binding, rat; conditions: Rin m 5F membranes, read-out: IC50
Procedure: 4) Ligand binding studies were conducted. Displacement of ^125 I-galanin by galanin, galanin fragment (1-13), Substance P fragment (4-11), galanin fragment (1-13) + Substance P fragment (4-11) in equimolar concentrations and the peptides of the invention M15, M35 and M34, A was studied.
Synthetic porcine galanin(1-29) was iodinated by chloramine-T-method to yield ^125 I-monoiodo-Tyr^26 -porcine galanin (specific activity 1800-2000 Ci/mmol), (as described by Land T., et al in: Methods in Neurosciences, Ed. M. Conn, 5, 1991, 225-234), and employed in ligand binding studies carried out at equilibrium.
The establishment and cell culture of Rin m 5F (a rat pancreatic β-tumor cell-line) cells have been described earlier (Gazdav A. F., et. al. Proc. Natl. Acad. Sci. USA, 77 (1980) 3519-3523). Briefly, the cells were grown in RPMI-1640 (Gibco) medium containing 10% (v/v) fetal calf serum, 2.06 mM L-gluthamine, 100 IU/ml penicillin and 100 μg/ml streptomycin in 10% CO2 -90% air 37° C. They were passaged every 5 days. The cells were detached from the surface of the bottles using 0.25% trypsin containing 1 mM EDTA and centrifuged at 2000 × g for 5 min at 4° C. The pellet was exposed for 15 min to hypoosmotic 5 mM HEPES buffer (pH 7.4). The suspension was centrifuged at 20000 × g for 15 min, the resulting pellet was resuspended in bacitracin-containing ([…]) 5 mM HEPES-buffered Krebs-Ringer solution (137 mM NaCl, […], 1.8 mM CaCl2, 1 g/1 glucose), pH 7.4, and used immediately in equilibrium binding experiments.
Displacement experiments were carried out in a final volume of 400 μl of bacitracin-containing (1 mg/ml) HEPES-buffered (5 mM) Krebs-Ringer solution, 0.05% (w/v) of BSA (pH 7.4) in the presence of 0.1-0.2 nM ^125 I-galanin, the membrane preparation and the increasing concentrations (10^-12 -10^-6 M) of unlabeled porcine galanin or of other galanin receptor ligands. Samples were incubated for 30 min at 37° C. Incubation was terminated by the addition of 10 ml of ice-cold HEPES-buffered Krebs-Ringer solution, followed by rapid filtration over Whatman GF/C filters, precoated for 5-6 hours in 0.3% (v/v) of polyethyleneimine solution. Filters were washed with 10 ml of assay solution. Radioactivity retained on the filters was determined in a Packard gamma counter. Specific binding was defined as that displaceable by 1 μM galanin (or appropriate concentration of a displacer).
The IC50 values of the displacing ligands were calculated from the computer-generated IC50 values as described by Land, T., et. al. (ibid).
Fitting of the experimental data was carried out on a Macintosh SE by means of a nonlinear least squares method using the Macintosh program "KaleidGraph".

Compared with `CC(C)C[C@H](NC(=O)[C@H](CC(C)C)NC(=O)[C@H](Cc1ccc(O)cc1)NC(=O)CNC(=O)[C@H](C)NC(=O)[C@H](CO)NC(=O)[C@H](CC(N)=O)NC(=O)[C@H](CC(C)C)NC(=O)[C@@H](NC(=O)[C@H](Cc1c[nH]c2ccccc12)NC(=O)CN)[C@@H](C)O)C(=O)NCC(=O)N1CCC[C@H]1C(=O)O` [Galanin fragment (1-13), reference compound], `CC(C)C[C@H](NC(=O)[C@H](CC(C)C)NC(=O)[C@H](Cc1ccc(O)cc1)NC(=O)CNC(=O)[C@H](C)NC(=O)[C@H](CO)NC(=O)[C@H](CC(N)=O)NC(=O)[C@H](CC(C)C)NC(=O)[C@@H](NC(=O)[C@H](Cc1c[nH]c2ccccc12)NC(=O)CN)[C@@H](C)O)C(=O)NCC(=O)N1CCC[C@H]1C(=O)N[C@@H](CCCCNC(=O)[C@@H]1CCCN1C(=O)[C@H](CC(C)C)NC(=O)[C@H](Cc1ccccc1)NC(=O)CNC(=O)CNC(=O)[C@@H](N)Cc1ccc(O)cc1)C(N)=O` [M34,A, Galanin(1-13)-Lys amide (Pro-Leuenkephalin(5-1))] is 10-fold lower in IC50: 100 nM for the first, 10 nM for the second.

Compound `CC(C)C[C@H](NC(=O)[C@H](CC(C)C)NC(=O)[C@H](Cc1ccc(O)cc1)NC(=O)CNC(=O)[C@H](C)NC(=O)[C@H](CO)NC(=O)[C@H](CC(N)=O)NC(=O)[C@H](CC(C)C)NC(=O)[C@@H](NC(=O)[C@H](Cc1c[nH]c2ccccc12)NC(=O)CN)[C@@H](C)O)C(=O)NCC(=O)N1CCC[C@H]1C(=O)N1CCC[C@H]1C(=O)N1CCC[C@H]1C(=O)NCC(=O)N[C@@H](Cc1ccccc1)C(=O)N[C@@H](CO)C(=O)N1CCC[C@H]1C(=O)N[C@@H](Cc1ccccc1)C(=O)N[C@@H](CCCNC(=N)N)C(N)=O` [M 35, Galanin(1-13)-Bradykinin(2-9) amide] has an IC50 of 0.1 nM.

same assay, conditions: Rin m 5F membranes, read-out: IC50 (no displacement)

“Substance P fragment (4-11): fragment 4-11 of Substance P (PQQFFGLM; ends and bridges not checked; UniProt P20366 61-68, looked up, fragment) [reference compound]” was tested, and the IC50 was greater than 10000 nM.

biological target: galanin receptor; test: Displacement of 125I-galanin, membranes from rat hypothalamus; format: binding; conditions: displacement experiments in rat hypothalamus, 125I-galanin
Procedure: Adult male rats (Sprague-Dawley, 180-200 g) were decapitated, the hypothalami quickly dissected and homogenized (10% mass/vol.) in 0.05M TRIS-Cl buffer, pH 7.4. The homogenate was diluted tenfold and centrifuged at 1000 × g for 10 min. The supernatant was centrifuged at 10,000 × g for 45 min and the pellet resuspended in 5 mM Hepes buffered Krebs-Ringer solution (137 mM NaCl, 2.68 mM KCl, 1.8 mM CaCl2 1 g/1 glucose), pH 7.4 to yield a final protein concentration of 1.0-1.5 mg/ml.
Displacement experiments were carried out in a final volume of 400 μl of Hepes-buffered (5 mM) Krebs-Ringer solution, 0.05% (w/v) of BSA (pH 7.4 ) supplemented with bacitracin (1 mg/ml ) in the presence of 0.1-0.2 nM 1251-galanin, the membrane preparation from rat hypothalami and increasing concentrations (10-12, 10^-6M) of unlabeled galanin or of other galanin recepto-ligands. Samples were incubated for 30 min at 37° C. Incubation was terminated by the addition of 10 ml of ice-cold Hepes-buffered Krebs-Ringer solution, followed by rapid filtration over Whatman GF/C filters, precoated for 5-6 hours in 0.3% (v/v) of polyethylencimine solution. The filters were washed with 10 ml of assay solution. Radioactivity retained on the filters was determined in a Packard gamma counter. Specific binding was defined as that displaceable by 1 μM galanin.
The 1C50 values of the displacing ligands were calculated by fitting of the experimental data on a Macintosh SE by means of a nonlincar least squares method using the program "KaleidaGraph".

First: CC(C)C[C@H](NC(=O)[C@H](CC(C)C)NC(=O)[C@@H](Cc1c[nH]c2ccccc12)NC(=O)[C@H](Cc1ccccc1)NC(=O)[C@@H](Cc1c[nH]c2ccccc12)NC(=O)[C@H](CCC(N)=O)NC(=O)[C@H](CCC(N)=O)NC(=O)[C@@H]1CCCN1C(=O)[C@H](CCCCN)NC(=O)[C@@H]1CCCN1C(=O)[C@@H](CCCNC(=N)N)NC(=O)[C@@H]1CCCN1C(=O)CNC(=O)[C@H](CC(C)C)NC(=O)[C@H](CC(C)C)NC(=O)[C@H](Cc1ccc(O)cc1)NC(=O)CNC(=O)[C@H](C)NC(=O)[C@H](CO)NC(=O)[C@H](CC(N)=O)NC(=O)[C@H](CC(C)C)NC(=O)[C@@H](NC(=O)[C@H](Cc1c[nH]c2ccccc12)NC(=O)CN)[C@@H](C)O)C(N)=O [C 7, Galanin(1-12)-Pro-Spantide amide] (H-GWTLNSAGYLLGP[dR]PKPQQ[dW]F[dW]LL-NH2; N-terminus assumed)
Second: CC(C)C[C@H](NC(=O)[C@H](CC(C)C)NC(=O)[C@H](Cc1ccc(O)cc1)NC(=O)CNC(=O)[C@H](C)NC(=O)[C@H](CO)NC(=O)[C@H](CC(N)=O)NC(=O)[C@H](CC(C)C)NC(=O)[C@@H](NC(=O)[C@H](Cc1c[nH]c2ccccc12)NC(=O)CN)[C@@H](C)O)C(=O)NCC(=O)N1CCC[C@H]1C(=O)N[C@@H](CCCCNC(=O)[C@@H]1CCCN1C(=O)[C@H](CC(C)C)NC(=O)[C@H](Cc1ccccc1)NC(=O)CNC(=O)CNC(=O)[C@@H](N)Cc1ccc(O)cc1)C(N)=O [M34,A, Galanin(1-13)-Lys amide (Pro-Leuenkephalin(5-1))]
The IC50 of the first is 50-fold lower: 0.2 nM for the first, 10 nM for the second. The first is the more potent here.

First: CC[C@H](C)[C@H](NC(=O)[C@H](Cc1ccc(O)cc1)NC(=O)[C@H](Cc1c[nH]cn1)NC(=O)[C@H](CCCNC(=N)N)NC(=O)[C@@H]1CCCN1C(=O)CNC(=O)[C@H](CC(C)C)NC(=O)[C@H](CC(C)C)NC(=O)[C@H](Cc1ccc(O)cc1)NC(=O)CNC(=O)[C@H](C)NC(=O)[C@H](CO)NC(=O)[C@H](CC(N)=O)NC(=O)[C@H](CC(C)C)NC(=O)[C@@H](NC(=O)[C@H](Cc1c[nH]c2ccccc12)NC(=O)CN)[C@@H](C)O)C(=O)N[C@@H](CC(N)=O)C(=O)N[C@@H](CC(C)C)C(=O)N[C@H](C(=O)N[C@H](C(=O)N[C@@H](CCCNC(=N)N)C(=O)N[C@@H](CCC(N)=O)C(=O)N[C@@H](CCCNC(=N)N)C(=O)N[C@@H](Cc1ccc(O)cc1)C(N)=O)[C@@H](C)O)[C@@H](C)CC [M 32, Galanin(1-13)-NPY(25-36) amide]
Second: CC(C)C[C@H](NC(=O)[C@H](CC(C)C)NC(=O)[C@H](Cc1ccc(O)cc1)NC(=O)CNC(=O)[C@H](C)NC(=O)[C@H](CO)NC(=O)[C@H](CC(N)=O)NC(=O)[C@H](CC(C)C)NC(=O)[C@@H](NC(=O)[C@H](Cc1c[nH]c2ccccc12)NC(=O)CN)[C@@H](C)O)C(=O)NCC(=O)N1CCC[C@H]1C(=O)N1CCC[C@H]1C(=O)N1CCC[C@H]1C(=O)NCC(=O)N[C@@H](Cc1ccccc1)C(=O)N[C@@H](CO)C(=O)N1CCC[C@H]1C(=O)N[C@@H](Cc1ccccc1)C(=O)N[C@@H](CCCNC(=N)N)C(N)=O [M 35, Galanin(1-13)-Bradykinin(2-9) amide]
The IC50 of the first is 4-fold lower: 0.05 nM for the first, 0.2 nM for the second.

Going from “GWTLNSAGYLLGARHYINLITRQRY-NH2 [M 88, Galanin(1-12)-Ala-NPY(25-36) amide]” to “GWTLNSAGYLLGPALALALA-NH2 [M 38, Galanin(1-13)-AlaLeuAlaLeuAlaLeuAla amide]”, the IC50 falls from 1 nM to 0.2 nM (5-fold).

Going from “GWTLNSAGYLLGPPGFSPFR-NH2 [M20, Galanin(1-13)-Bradykinin(3-9) amide]” to “GWTLNSAGYLLGPPPALALA-NH2 [M 40, Galanin(1-12)- -ProProProAlaLeuAlaLeuAla amide]”, the IC50 rises from 1 nM to 13 nM (13-fold).

Going from “GWTLNSAGYLLGPPPLFGGY-NH2 [M36,A, Galanin(1-12)-ProProPro-Leuenkephalin(5-1) amide]” to “GWTLNSAGYLLGPPPQQFFGLM-NH2 [M37, Galanin(1-12)-ProProPro-SP(5-11) amide]”, the IC50 rises from 20 nM to 40 nM (2-fold).

For “GWTLNSAGYLLGPPPYGGFL-NH2 [M 36, Galanin(1-12)-ProProPro-Leuenkephalin(1-5) amide]”, the IC50 was 40 nM.

same assay, conditions: membranes from rat hypothalami

With “Rat galanin: galanin of rat sequence, unlabeled displacer [reference compound]” the “Displacement curves, rat versus porcine galanin” value was “indistriguishable displacement curves”.
